Test results: PubChem BioAssay AID1902 (Broad Institute, 2009)
Active and inactive are the calls of the source.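 The calls were made as follows: active = EC50 no more than a set limit of log units above the highest dose; inactive = the rest.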

molecular target: S. pyogenes SKKanGAS, kanamycin survival, BacTiterGlo, 6 h; test: SKKanGAS survival reduction under kanamycin, dose response, streptokinase promoter inhibitor project, SKKanGAS strain, luminescence, dose confirmation (AID 1902);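 also: lower survival reflects blocked streptokinase promoter driving kanamycin resistance gene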

| Structure (SMILES) | EC50 |
| --- | --- |
| O=[N+]([O-])c1ccc(O)c(/C=N/Nc2nc3ccccc3[nH]2)c1 | 0.589 µM |
| Fc1ccc(-n2cc(-c3ccccc3)c3c(=S)nc[nH]c32)cc1 | 8.7 µM |
| Cc1cccc(N2CCN(C(=O)c3ccc4nc(N5CCCCC5)sc4c3)CC2)c1C | 7.63 µM |
| Oc1c(C(Nc2nc3ccccc3s2)c2ccco2)ccc2cccnc12 (configuration not stated) | 2.98 µM |
| C=C(C)[C@@H]1CCC2(C(=O)O)CC[C@]3(C)[C@H](CC[C@@H]4[C@@]5(C)CCC(=O)C(C)(C)[C@@H]5CC[C@]43C)[C@@H]12 (some centres not stated) | 1.85 µM |
| C=CCn1c(=O)c(C(=O)NCc2ccccc2)c(O)c2ccccc21 | 3.32 µM |
| COc1cc([N+](=O)[O-])cc(/C=N/NC(=O)c2cc(-c3ccccc3)nc3ccccc23)c1O | 3.2 µM |
| CN(CC1CCCO1)S(=O)(=O)c1ccc(C(=O)Nc2nnc(-c3ccccc3)o2)cc1 (configuration not stated) | 2.62 µM |
| CCOc1ccc(-n2c(O)c(/C=N/NC(=O)C3COc4ccccc4O3)c3ccccc3c2=O)cc1 (configuration not stated) | 2.34 µM |
| O=C(CSc1ccc2ccccc2n1)N/N=C/c1ccccc1O | 2.12 µM |
| N=C1S/C(=C\c2ccco2)C(=O)N1c1nccs1 | 2.13 µM |
| Oc1c(Br)cc(Br)cc1CNc1cccc2cccnc12 | 4.47 µM |
| COc1cccc(-c2nc(NC3CCCC3)c3ccccc3n2)c1O | 5.84 µM |
| CCCc1cc2c(-c3ccccc3)cc(=O)oc2cc1OCc1ccc(C(=O)O)o1 | 8.9 µM |
| COc1ccc(/C=C/c2ccc3cccc(O)c3n2)c(OC)c1OC | 3.27 µM |
| C[C@H]1CC[C@@]2(C)[C@@H](CC[C@@H]3[C@@H]2CC[C@]2(C)[C@@H](O)CC[C@@H]32)C1 | 0.856 µM |
| O=C(Nc1cccc(NC(=O)c2ccc([N+](=O)[O-])o2)c1)c1ccco1 | 6.61 µM |
| O=C(CSc1nnc(CNC(=O)c2c(F)cccc2F)o1)NCCc1ccccc1 | > 15 µM (inactive) |
| CCCN(CCC)c1nc(-c2ccccn2)nc2ccccc12 | 0.074 µM |
| O=C(NC(=S)NNC(=O)c1cccs1)c1ccco1 | 6.22 µM |
| CCCc1cc(=O)n2[nH]cc(-c3ccc(Cl)cc3)c2n1 | 1.78 µM |
| O=C(Nc1nnc(C2CC2)o1)c1ccc(S(=O)(=O)N2CCCc3ccccc32)cc1 | 1.34 µM |
| COc1ccccc1NS(=O)(=O)c1cc(NC(=S)NCC2CCCO2)ccc1C (configuration not stated) | > 15 µM (inactive) |
| c1ccc(CNc2nc(-c3ccccn3)nc3ccccc23)cc1 | 0.418 µM |
| Cc1ccc(/C=C2/Sc3ccc(C(=O)N4CCC5(CC4)OCCO5)cc3NC2=O)cc1 | 5.88 µM |
| O=C(OCc1ccc(COC(=O)c2ccc(O)cc2)cc1)c1ccc(O)cc1 | 2.21 µM |

| Structure (SMILES) | EC50 |
| --- | --- |
| O=C(Cc1cccs1)NNC(=S)NC(=O)c1ccccc1 | 3.29 µM |
| Cc1ccnc(NC(=S)N2CCN(c3cccc(C(F)(F)F)c3)CC2)c1 | 1.65 µM |
| CN1C(=O)/C(=C/c2ccc(C(F)(F)F)cc2)Sc2ccc(C(=O)N3CCN(c4ccccn4)CC3)cc21 | 1.57 µM |
| Cc1ccc(/C=C/C(=O)c2ccccc(=O)c2O)cc1C | 4.04 µM |
| Cc1nc(NS(=O)(=O)c2ccc(Cl)s2)c2c3c(sc2n1)CCCC3 | 3.98 µM |
| Cc1ccc(Cn2nnc3c(=O)[nH]c(C4CCN(S(=O)(=O)c5cc(C)ccc5C)CC4)nc32)cc1 | 6.26 µM |
| Cc1cc(C)c2nc(NNC(=O)c3ccc(S(=O)(=O)N4CCc5ccccc5C4)cc3)sc2c1 | 0.538 µM |
| Cc1nn(Cc2ccc(C(=O)Nc3nc4c(C)cccc4s3)o2)c(C)c1Br | 2.85 µM |
| CCCCCCCCCCCCC(NC(C)=O)(C(=O)OCC)C(=O)OCC | 6.05 µM |
| Cc1cccc(-n2nc(C(=O)c3ccco3)cc(-c3nc4ccccc4[nH]3)c2=N)c1 | 3.36 µM |
| COc1ccc(-c2c(C(F)(F)F)[nH]n3c(=O)cc(-c4ccccc4)nc23)cc1 | 4.73 µM |
| O=C(CSc1nc2nc(-c3cccs3)cc(C(F)(F)F)c2c(=O)[nH]1)Nc1ccc(F)c(F)c1 | 1.16 µM |
| Clc1ccc(C2C3=C(Nc4ncnn42)c2ccccc2CC3)cc1 (configuration not stated) | 11.4 µM |
| O=C(NC(=S)Nc1ccc(Cl)cn1)C(c1ccccc1)c1ccccc1 | 3.43 µM |
| Cc1c(C(=O)NNC(=S)NCc2ccc(Cl)cc2)oc2ccccc12 | 2.17 µM |
| CCC(=O)NC(c1ccc(OC)c(OC)c1)c1cc(Cl)c2cccnc2c1O (configuration not stated) | 5 µM |
| Cc1ccc(SCC(=O)N2c3ccccc3Sc3ccccc32)cc1 | 3.78 µM |
| c1ccc(-c2cc3c(NCC4COc5ccccc5O4)ncnc3s2)cc1 (configuration not stated) | 2.98 µM |
| S=c1[nH]cnc2scc(-c3ccc(Cl)cc3)c12 | 9.77 µM |
| CCc1ccccc1OCC(=O)Nc1nc(-c2cccnc2)cs1 | 1.05 µM |
| CCc1ccc(NC(=O)c2ccc(F)c(S(=O)(=O)NCC3COc4ccccc4O3)c2)cc1 (configuration not stated) | 5.34 µM |
| COc1cc2ccccc2cc1C(=O)NC(=S)Nc1ccc(C(=O)O)cc1 | 4.44 µM |
| CCN1/C(=C/c2ccc3cc(C)ccc3[n+]2CC)Sc2ccc3sccc3c21 | 2.34 µM |
| CCOc1ccc(NC(=S)N=Nc2c(O)[nH]c3ccccc23)cc1 | 0.525 µM |
| c1ccc(-c2oc3ncnc(NCCCn4ccnc4)c3c2-c2ccccc2)cc1 | 8.92 µM |
| O=C(CN1CCCC1)Nc1ccc(NC(=O)Nc2ccccc2)cc1 | > 15 µM (inactive) |

| Structure (SMILES) | EC50 |
| --- | --- |
| Cc1oc2c(c1C(=O)NCc1cccnc1)C(=O)c1ccccc1C2=O | 0.882 µM |
| N/C(=N\N=C/c1ccc(Br)cc1)N/N=C\c1ccc(Br)cc1 | 3.8 µM |
| CCCCCCCCCCOC(=O)Cn1c(COc2ccccc2OC)[n+](C)c2ccccc21 | 7.28 µM |
| CCc1ccc(N=C2NC(=O)/C(=C/c3cc(OC)c(O)c(OC)c3)S2)cc1 | 4.44 µM |
| OCCCCC#Cc1c(-c2ccsc2)sc2ccccc12 | 7.82 µM |
| Cc1cc(SCC(=O)N/N=C/c2ccc(O)cc2O)c(C)cc1Br | 1.93 µM |
| Cc1ccc(C(C)C)c(OCc2ccc(C(=O)N/N=C/c3ccc(O)cc3O)cc2)c1 | 1.26 µM |
| Cc1ccc(Cn2c(Cc3ccccc3)nc3ccccc32)cc1 | 14.2 µM |
| Cc1ccc2[nH]c(O)c(N=NC(=O)c3ccc(NS(=O)(=O)c4cccs4)cc3)c2c1 | 1.25 µM |
| CCCc1nc2ccccc2c(=O)n1NC(=O)c1c(O)c2cccc3c2n(c1=O)CCC3 | 2.6 µM |
| CCN=C1S/C(=C\c2ccc(-c3cccc(C(=O)O)c3)o2)C(=O)N1CC | 3.4 µM |
| COc1ccccc1NC(=O)NCCCCc1ccccc1 | > 15 µM (inactive) |
| COc1ccc(CNCC(O)(c2ccc(Cl)cc2)c2ccc(Cl)cc2)cc1 | 3.51 µM |
| O=C(/C=C/c1ccccc1)NC(NC(=S)Nc1cc(Cl)ccc1Cl)C(Cl)(Cl)Cl (configuration not stated) | 0.55 µM |
| O=C(NCC1(N2CCCCC2)CCCCC1)c1cccc(NS(=O)(=O)c2ccccc2)c1 | > 15 µM (inactive) |
| CC(C)=CCc1c(O)cc2c(c1O)C(=O)CC(c1ccc(O)cc1)O2 (configuration not stated) | 6.08 µM |
| Cc1cc(=O)oc2cc(OCC(=O)N3CCN(C(=O)C4COc5ccccc5O4)CC3)ccc12 (configuration not stated) | 3.16 µM |
| COc1ccc(-c2cc3nc(-c4ccccc4)cc(N4CCCC(O)C4)n3n2)cc1 (configuration not stated) | 4.3 µM |
| O=Nc1c(-c2c(O)[nH]c3cc(Br)ccc23)[nH]c2ccccc12 | 2.95 µM |
| CC(C)OC(=O)c1c(NS(=O)(=O)c2ccccc2)sc2c1CCCC2 | 3.88 µM |
| COc1ccc(OC)c(NC(=O)NC2CCCc3ccccc32)c1 (configuration not stated) | > 15 µM (inactive) |
| Cc1cc(N/N=C\c2ccc(Br)cc2)nc(-n2nc(C)cc2C)n1 | 0.414 µM |
| Cc1ccc(O)c(C2=NNC(c3ccc(Cl)cc3)C2)c1 (configuration not stated) | 7.44 µM |
| Cc1cccc(NC(=O)c2sc(Cl)nc2-c2ccccc2)c1 | 11.2 µM |
| CCn1cc(CN2CCC(n3nccc3NC(=O)Cc3ccccc3)CC2)cn1 | > 15 µM (inactive) |
